What was measured:
FGFR1 kinase = FGFR1 kinase (Homo sapiens (Human), UniProt P11362); test: FGFR1 TR-FRET kinase assay; assay type: biochemical; conditions: for inhibition at 1 µM: 1000 nM compound; for IC50: 13 μM ATP, read-out: IC50 of FGFR1 inhibition
Description: Compounds were screened in the TR-FRET assay with FGFR1 kinase. 5 ng of FGFR1 [Upstate, USA] kinase was used for assay. The compound was incubated with the kinase for 30 minutes at RT. After the incubation, substrate mix [40 nM Ultra light poly GT (Perkin Elmer, USA) and 13 μM ATP (Sigma)] was added. The above reaction was stopped by the addition of 40 mM EDTA after the […] kinase reaction. The Eu-labelled antiphospho-tyrosine antibody [Perkin Elmer, USA] was added at 0.5 nM and the fluorescence emission at 615 nm/665 nm [excitation at 340 nm] was measured. The compounds were initially screened at 100 nM and 1 μM concentrations. The compounds with >50% inhibition at 100 nM of FGFR1 were taken for the full dose response studies. The final DMSO concentration in the assay was 1%. For IC50 determination, ⅓^rd serial dilution was made from the 20 mM DMSO stock solution. 2 μl of these were transferred to the test wells containing 20 μl of the reaction mixture [total reaction volume 20 μl]. The fluorescence was measured in Perkin Elmer Wallac 1420 Multilabel Counter Victor 3. The IC50 was determined by fitting the dose response data to sigmoidal curve fitting equation using GraphPad Prism software V5.

c-Met kinase = c-Met kinase (Homo sapiens (Human), UniProt P08581); test: c-Met TR-FRET kinase assay; assay type: biochemical; conditions: 1000 nM compound
Chain of c-Met kinase (P08581 25-1390): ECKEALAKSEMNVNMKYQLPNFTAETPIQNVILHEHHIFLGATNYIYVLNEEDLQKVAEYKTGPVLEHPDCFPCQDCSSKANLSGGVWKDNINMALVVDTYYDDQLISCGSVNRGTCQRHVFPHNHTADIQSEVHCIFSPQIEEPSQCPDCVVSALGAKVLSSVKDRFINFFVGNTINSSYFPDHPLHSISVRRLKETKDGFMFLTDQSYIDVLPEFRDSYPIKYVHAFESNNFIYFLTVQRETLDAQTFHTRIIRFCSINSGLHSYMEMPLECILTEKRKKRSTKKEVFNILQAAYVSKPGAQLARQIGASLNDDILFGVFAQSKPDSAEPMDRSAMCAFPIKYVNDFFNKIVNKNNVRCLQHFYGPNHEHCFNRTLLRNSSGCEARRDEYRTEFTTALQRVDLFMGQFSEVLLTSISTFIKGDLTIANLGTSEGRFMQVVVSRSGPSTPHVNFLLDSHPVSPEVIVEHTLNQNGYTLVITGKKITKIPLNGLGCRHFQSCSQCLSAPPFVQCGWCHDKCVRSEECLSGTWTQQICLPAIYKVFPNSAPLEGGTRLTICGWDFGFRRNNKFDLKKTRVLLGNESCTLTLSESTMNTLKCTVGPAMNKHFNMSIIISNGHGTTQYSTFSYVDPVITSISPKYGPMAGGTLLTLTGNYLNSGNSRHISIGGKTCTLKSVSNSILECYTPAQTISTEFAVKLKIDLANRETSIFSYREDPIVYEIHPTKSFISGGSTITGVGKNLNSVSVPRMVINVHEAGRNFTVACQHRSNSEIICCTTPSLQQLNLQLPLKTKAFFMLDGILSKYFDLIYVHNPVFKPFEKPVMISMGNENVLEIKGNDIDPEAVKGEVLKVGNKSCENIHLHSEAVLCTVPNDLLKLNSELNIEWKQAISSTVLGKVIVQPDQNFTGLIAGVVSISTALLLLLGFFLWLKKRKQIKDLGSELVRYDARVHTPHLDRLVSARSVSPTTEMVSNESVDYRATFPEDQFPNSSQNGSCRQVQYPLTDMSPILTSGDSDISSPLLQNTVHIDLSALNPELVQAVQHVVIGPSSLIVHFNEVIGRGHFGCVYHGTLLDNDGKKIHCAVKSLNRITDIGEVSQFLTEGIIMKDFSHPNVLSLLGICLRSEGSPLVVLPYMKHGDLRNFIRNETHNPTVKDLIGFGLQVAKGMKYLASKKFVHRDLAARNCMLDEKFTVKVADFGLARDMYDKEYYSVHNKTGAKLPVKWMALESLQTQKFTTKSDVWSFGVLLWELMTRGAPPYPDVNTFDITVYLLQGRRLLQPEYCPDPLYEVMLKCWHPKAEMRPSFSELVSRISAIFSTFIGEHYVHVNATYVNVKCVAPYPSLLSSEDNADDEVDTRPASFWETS
Description: Compounds were screened in the TR-FRET assay with c-Met kinase. 0.1 ng of c-Met [expressed in-house] kinase was used for assay. The compound was incubated with the kinase for 60 min at RT. After the incubation, substrate mix [40 nM Ultra light poly GT (Perkin Elmer, USA) and 10 μM ATP (Sigma)] was added. The above reaction was stopped by the addition of 40 mM EDTA after the 30 min kinase reaction. The Eu-labelled antiphospho-tyrosine antibody [Perkin Elmer, USA] was added at 0.5 nM and the fluorescence emission at 615 nm/665 nm [excitation at 340 nm] was measured. The compounds were initially screened at 100 nM and 1 μM concentrations. The compounds with >50% inhibition at 100 nM of c-Met were taken for the full dose response studies. The final DMSO concentration in the assay was 1%. For IC50 determination, ⅓rd serial dilution was made from the 20 mM DMSO stock solution. 2 μl of these were transferred to the test wells containing 20 μl reaction mixture [total reaction volume 20 μl]. The fluorescence was measured in Perkin Elmer Wallac 1420 Multilabel Counter Victor 3. The IC50 was determined by fitting the dose response data to sigmoidal curve fitting equation using GraphPad Prism software V5.

Chain of FGFR1 kinase (P11362 22-822): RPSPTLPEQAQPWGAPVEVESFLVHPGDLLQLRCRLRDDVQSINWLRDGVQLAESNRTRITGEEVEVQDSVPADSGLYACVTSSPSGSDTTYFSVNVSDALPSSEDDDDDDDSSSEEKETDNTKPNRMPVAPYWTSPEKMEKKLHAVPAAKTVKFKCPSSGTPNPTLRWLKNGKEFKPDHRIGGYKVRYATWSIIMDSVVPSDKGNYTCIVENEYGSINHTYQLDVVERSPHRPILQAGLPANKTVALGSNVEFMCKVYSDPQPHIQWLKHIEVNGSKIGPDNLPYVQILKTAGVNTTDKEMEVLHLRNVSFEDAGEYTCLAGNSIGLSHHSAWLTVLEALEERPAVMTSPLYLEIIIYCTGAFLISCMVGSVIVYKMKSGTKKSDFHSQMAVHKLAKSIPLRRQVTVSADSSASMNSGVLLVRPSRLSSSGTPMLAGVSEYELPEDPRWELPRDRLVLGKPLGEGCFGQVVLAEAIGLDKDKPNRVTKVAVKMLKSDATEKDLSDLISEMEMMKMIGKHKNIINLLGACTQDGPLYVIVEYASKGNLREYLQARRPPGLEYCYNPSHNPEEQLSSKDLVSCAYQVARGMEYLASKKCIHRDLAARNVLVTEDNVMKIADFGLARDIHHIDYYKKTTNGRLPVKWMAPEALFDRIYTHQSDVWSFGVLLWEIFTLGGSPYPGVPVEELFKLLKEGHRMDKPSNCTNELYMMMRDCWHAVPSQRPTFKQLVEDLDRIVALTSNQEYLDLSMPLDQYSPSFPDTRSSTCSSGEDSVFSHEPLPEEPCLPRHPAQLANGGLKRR

inhibition at 1 µM (FGFR1 kinase) [%] | IC50 (FGFR1 kinase) [nM] | inhibition at 1 µM (c-Met kinase) [%] | SMILES
98 | 3.4 | 9 | CCS(=O)(=O)Nc1cc(-c2ccc(F)cc2F)cc(-n2cnc3cc(-c4cn(CCN5CCOCC5)nn4)ccc32)c1 [Example 49, N-(2′,4′-difluoro-5-(5-(1-(2-morpholinoethyl)-1H-1,2,3-triazol-4-yl)-1H-benzo[d]imidazol-1-yl)biphenyl-3-yl)ethanesulfonamide]
87 | 22 | -2 | COc1ccc(-c2ccc3c(c2)ncn3-c2cc(NC(C)=O)cc(-c3ccc(F)cc3)c2)cn1 [Example 69, N-(4′-fluoro-5-(5-(6-methoxypyridin-3-yl)-1H-benzo[d]imidazol-1-yl)biphenyl-3-yl)acetamide]
99 | 10 | 0 | CC(=O)Nc1cc(-c2ccc(F)cc2)cc(-n2cnc3cc(-n4cccn4)ccc32)c1 [Example 70, N-(5-(5-(1H-pyrazol-1-yl)-1H-benzo[d]imidazol-1-yl)-4′-fluorobiphenyl-3-yl)-acetamide]
98 | 32 | 11 | CCS(=O)(=O)Nc1cc(-c2ccc(F)cc2)cc(-n2cnc3cc(-n4cccn4)ccc32)c1 [Example 72, N-(5-(5-(1H-pyrazol-1-yl)-1H-benzo[d]imidazol-1-yl)-4′-fluorobiphenyl-3-yl)-ethanesulfonamide]
96 | 16 | 15 | CC(=O)Nc1cc(-c2ccc(C)o2)cc(-n2cnc3cc(-c4cnn(CCN(C)C)c4)ccc32)c1 [Example 82, N-(3-(5-(1-(2-(dimethylamino)ethyl)-1H-pyrazol-4-yl)-1H-benzo[d]imidazol-1-yl)-5-(5-methylfuran-2-yl)phenyl)acetamide]
95 | 37 | 5 | CC(=O)Nc1cc(-c2ccc(C)o2)cc(-n2cnc3cc(-c4cnn(CCN5CCOCC5)c4)ccc32)c1 [Example 83, N-(3-(5-methylfuran-2-yl)-5-(5-(1-(2-morpholinoethyl)-1H-pyrazol-4-yl)-1H-benzo[d]imidazol-1-yl)phenyl)acetamide]
97 | 1.8 | 0 | CC(=O)Nc1cc(-n2cccc2)cc(-n2cnc3cc(-c4cn(CCC(C)(C)O)nn4)ccc32)c1 [Example 112, N-(3-(5-(1-(3-hydroxy-3-methylbutyl)-1H-1,2,3-triazol-4-yl)-1H-benzo[d]-imidazol-1-yl)-5-(1H-pyrrol-1-yl)phenyl)acetamide]
94 | 83 | 23 | Cn1cc(-c2ccc3c(c2)ncn3-c2cc(NS(=O)(=O)N3CCCCC3)cc(-n3cccn3)c2)cn1 [Example 119, N-(3-(5-(1-methyl-1H-pyrazol-4-yl)-1H-benzo[d]imidazol-1-yl)-5-(1H-pyrazol-1-yl)phenyl)piperidine-1-sulfonamide]
94 | 61 | 0 | O=C(NCc1ccco1)Nc1cc(-n2cccn2)cc(-n2cnc3cc(-n4cccn4)ccc32)c1 [Example 123, 1-(3-(5-(1H-pyrazol-1-yl)-1H-benzo[d]imidazol-1-yl)-5-(1H-pyrazol-1-yl)-phenyl)-3-(furan-2-ylmethyl)urea]
91 | 62 | 10 | CC(=O)Nc1cc(-n2cccn2)cc(-n2cnc3cc(-c4cnn(CC5CC5)c4)ccc32)c1 [Example 127, N-(3-(5-(1-(cyclopropylmethyl)-1H-pyrazol-4-yl)-1H-benzo[d]imidazol-1-yl)-5-(1H-pyrazol-1-yl)phenyl)acetamide]
99 | 1.3 | 15 | CC(=O)Nc1cc(-c2ccc(F)cc2F)cc(-n2cnc3cc(-c4cnn(C)c4)cnc32)c1 [Example 131, N-(2′,4′-difluoro-5-(6-(1-methyl-1H-pyrazol-4-yl)-3H-imidazo[4,5-b]pyridin-3-yl)biphenyl-3-yl)acetamide]
97 | 14 | 0 | CCS(=O)(=O)Nc1cc(-c2ccc(F)cc2F)cc(-n2cnc3cc(-c4cnn(C)c4)cnc32)c1 [Example 133, N-(2′,4′-difluoro-5-(6-(1-methyl-1H-pyrazol-4-yl)-3H-imidazo[4,5-b]pyridin-3-yl)biphenyl-3-yl)ethanesulfonamide]
92 | 98 | 0 | Cn1cc(-c2cnc3c(c2)ncn3-c2cc(NS(=O)(=O)c3ccccc3)cc(-c3ccc(F)cc3F)c2)cn1 [Example 134, N-(2′,4′-difluoro-5-(6-(1-methyl-1H-pyrazol-4-yl)-3H-imidazo[4,5-b]pyridin-3-yl)biphenyl-3-yl)benzenesulfonamide]
91 | 48 | 0 | CC(C)S(=O)(=O)Nc1cc(-c2cc(F)ccc2F)cc(-n2cnc3cc(-c4cnn(CCN5CCOCC5)c4)ccc32)c1 [Example 142, N-(2′,5′-difluoro-5-(5-(1-(2-morpholinoethyl)-1H-pyrazol-4-yl)-1H-benzo[d]-imidazol-1-yl)biphenyl-3-yl)propane-2-sulfonamide]
79 | 7.3 | 0 | CC(=O)Nc1cc(-c2c(F)cccc2F)cc(-n2cnc3cc(-n4cccn4)ccc32)c1 [Example 152, N-(5-(5-(1H-pyrazol-1-yl)-1H-benzo[d]imidazol-1-yl)-2′,6′-difluorobiphenyl-3-yl)acetamide]
89 | 62 | 1 | CC(=O)Nc1cc(-n2cncn2)cc(-n2cnc3cc(-c4cnn(C)c4)ccc32)c1 [Example 155, N-(3-(5-(1-methyl-1H-pyrazol-4-yl)-1H-benzo[d]imidazol-1-yl)-5-(1H-1,2,4-triazol-1-yl)phenyl)acetamide]
95 | 22 | 12 | COc1ccc(-c2cc(NC(C)=O)cc(-n3cnc4cc(-c5cnn(C)c5)ccc43)c2)cn1 [Example 158, N-(3-(6-methoxypyridin-3-yl)-5-(5-(1-methyl-1H-pyrazol-4-yl)-1H-benzo[d]-imidazol-1-yl)phenyl)acetamide]
